Assay results as given in patent US10201543B2, “Therapeutically active compounds and their methods of use” (Agios Pharmaceuticals, Inc., priority 2015, dated 2019).

How the values were obtained:
[1] = test system: primary human IDH2 (R140Q) mutant AML cells; test: Ex vivo treatment of primary human AML blast cells; assay type: cell-based; conditions: for percentage of blast cells: from 90%, 500, 1000, 5000 nM
Source text: Cells are counted at Days 3, 6, 9, and 13 and normalized to DMSO control.

U87MG IDH2 (R140Q) tumor = test: PK/PD in U87MG IDH2 (R140Q) mouse xenograft model; conditions: 3 consecutive doses of 25 mg/kg or above, twice daily, 12 hour interval
[2] = test system: TF-1/IDH2 (R140Q) mutant cells; test: 2-HG levels in TF-1/IDH2 (R140Q) mutant cells; assay type: cell-based
Procedure: TF-1/IDH2 (R140Q) mutant cells are treated in vitro for 7 days with vehicle (dimethylsulfoxide; […].

[3] = test system: AMNI7577-P2 (HuKemia model); test: Survival in mutant positive AML mouse model (AMNI7577-P2, NOD/SCID mice); assay type: in vivo
[4] = test system: TF-1 IDH2 (R140Q) mutant cells; test: EPO-induced differentiation in TF-1 IDH2 (R140Q) mutant cells; assay type: cell-based; conditions: when 2-HG levels fall below 1 mM
TF-1 IDH2 (R140Q) cells [5] = test: GM-CSF-independent growth of TF-1 IDH2 (R140Q) cells; assay type: cell-based; conditions: 1 μM, 7 days
TF-1 IDH2 (R140Q) cells [6] = test: Vimentin expression in TF-1 IDH2 (R140Q) cells; assay type: cell-based; conditions: 7 days; 2-HG levels below 1 mM, dose >200 nM
CYP1A2 = test: CYP induction, CYP1A2; assay type: in vitro ADME
CYP2B6 = test: CYP induction, CYP2B6
human CYP3A4 = test: CYP induction, CYP3A4

| Compound | population of more differentiated cells (metamyelocytes) ([1]; 9 days ex vivo) | percentage of blast cells ([1]; Day 6) [%] | percentage of blast cells ([1]; Day 9) [%] | intracellular 2-HG ([1]; ex vivo treatment) | tumor 2-HG levels (U87MG IDH2 (R140Q) tumor) | intracellular levels of 2-HG ([2]; 5 μM, 7 days, 15.5 mM with DMSO) [mM] | inhibition at 1 µM ([2]; 168 h, read-out: 2-HG production inhibited) [%] | IC90 ([2]; 168 h, read-out: inhibitory concentration, 90% (IC90) for 2-HG inhibition) [nM] | IC50 ([2]; 168 h, read-out: intracellular IC50 for 2-HG inhibition) [nM] | Survival at study termination ([3]; 45 mg/kg PO/BID, Day 48-84) | survival in comparison to cytarabine ([3]; 5, 15, 45 mg/kg) | leukemia burden and differentiation ([3]; all treated animals) | EPO-induced expression of hemoglobin gamma 1/2 and KLF-1 [4] | GM-CSF independent growth (TF-1 IDH2 (R140Q) cells [5]) | vimentin expression induced by IDH2 (R140Q) (TF-1 IDH2 (R140Q) cells [6]) | induction of CYP1A2 (CYP1A2) | induction of CYP2B6 (CYP2B6) | induction of human CYP3A4 (human CYP3A4) |
| --- | --- | --- | --- | --- | --- | --- | --- | --- | --- | --- | --- | --- | --- | --- | --- | --- | --- | --- |
| CC(C)(O)CNc1nc(Nc2ccnc(C(F)(F)F)c2)nc(-c2cccc(C(F)(F)F)n2)n1 [compound 3, 2-Methyl-1-[(4-[6-(trifluoromethyl)pyridin-2-yl]-6-{[2-(trifluoromethyl)pyridin-4-yl]amino}-1,3,5-triazin-2-yl)amino]propan-2-ol] | clear increase | 55 | 40 | decrease | decrease to baseline | 0.08 | > 99 | 160 | 16 | all 9 mice survived | dose dependent survival advantage | dose dependent decrease in leukemia and evidence of normal differentiation | restores | reversed | reduced to baseline levels | – | – | – |
| Nc1nc(Nc2ccnc(C(F)(F)F)c2)nc(-c2cccc(C(F)(F)F)n2)n1 [compound 2, 6-(6-(trifluoromethyl)pyridin-2-yl)-N2-(2-(trifluoromethyl)pyridin-4-yl)-1,3,5-triazine-2,4-diamine] | – | – | – | – | – | – | – | – | – | – | – | – | – | – | – | not observed | not observed | weak inducers |
